{"source": "patent EP0839036B1", "about": "“USE OF 1,4-DIHYDROPYRIDINE DERIVATIVES IN THE PREVENTION AND THERAPY OF ATHEROSCLEROTIC DEGRADATION OF ARTERIAL WALLS” (RECORDATI S.A. CHEMICAL and PHARMACEUTICAL COMPANY, priority 1995, dated 1997)", "key": {"[1]": {"test_system": "Human vascular myocytes (A 617 from human femoral artery)", "test": "Myocytes growth inhibition measured by cell count (human)", "format": "cell-based", "conditions": "cell count after 72 hours with 10% fetal calf serum, read-out: IC50 (concentration required to inhibit cell growth by 50%)", "description": "Migration of myocytes was investigated for the present invention using rat aortic smooth muscle cells in the presence of fibrinogen as chemotactic factor, whereas for studies on their proliferation rat and human cells were used. Cell count and [^3H]-thymidine incorporation were used to evaluate myocytes growth. The methodology was as follows:\nMyocytes were cultured from the intima-medial layer of the aortas of male Sprague-Dawley rats (200-250 g). Cells were grown in monolayers at 37°C in a humidified atmosphere of 5% CO2 in Eagle's minimum essential medium supplemented with 10% (v/v) fetal calf serum, 100 U/ml penicillin, 0.1 mg/ml streptomycin, 20 mM tricine buffer and 1% (v/v) non-essential amino acid solution. The medium was changed every third day. Cells were used between the 4th and 10th passage. Cell viability was timely assessed by tripan blue exclusion. Myocytes were identified for growth behaviour, morphology and using monoclonal antibody specific for a-actin, the actin isoform typical of myocytes. Human vascular myocytes (A 617 from human femoral artery) were grown in the same culture conditions. […] Cell proliferation was evaluated by cell count after trypsinization of the monolayers using a Coulter Counter model ZM. Cell viability was assessed by tripan blue exclusion, and found to be higher than 95% at the drug concentrations used."}, "[2]": {"test_system": "macrophages loaded with cholesterol ester", "test": "Cholesterol esterification in macrophages loaded with cholesterol ester", "format": "cell-based, mouse", "conditions": "Figure 4; for relative potency on cholesterol esterification: cholesterol ester loaded macrophages", "description": "Cholesterol esterification induced by AcLDL in mouse peritoneal macrophages was investigated as follows. Mouse peritoneal macrophages were obtained by peritoneal lavage from mice (Balb/c Charles River, Calco, Italy) three days after intraperitoneal injection of thioglycolate. Cells (2-3x10^6) were plated in 35 mm wells with Dulbecco's minimum essential medium containing 10% fetal bovine serum. After 3 hours, the dishes were washed to eliminate unattached cells and maintained in Dulbecco's minimum essential medium plus 10% fetal bovine serum for 24 hours before use. After cell plating, experiments were performed at 37°C in serum free Dulbecco's minimum essential medium containing 0.2% essentially fatty acid-free bovine serum albumin plus the indicated additions. Human LDL (d=1.019-1.063 g/ml) were isolated from plasma of healthy volunteers by sequential ultracentrifugation (Beckman L5-50, Palo Alto, CA). For acetylation, LDL were dialysed against 0.15 M NaCl, pH 7.4, diluted with an equal volume of saturated sodium acetate and treated with acetic anhydride. For [^125I]AcLDL, lipoproteins were labelled with sodium [^125I]iodide desalted by gel filtration on Sephadex G-25 eluted with phosphate buffered saline. Specific activity was 100-200 cpm/ng protein. Trichloroacetic acid non precipitable radioactivity was below 2% of total. All lipoproteins were sterile filtered. Cells were incubated for 24 hours with the tested compounds. After substitution of the medium with an identical one, incubation was continued for additional 24 hours. During this second incubation [^125I]AcLDL were added (50 µg/ml). Cholesterol esterification was measured after addition of [1-^14C] oleic acid ([…] sample) complexed with bovine serum albumin during the last 1 or 2 hours of incubation and subsequent determination of radioactivity associated with cellular cholesteryl esters. Where indicated cells were enriched with cholesterol by 24 hours incubation with 50 µg/ml of AcLDL before drug addition and experimental determinations.\nAnother set of experiments was performed to evaluate the effect of lercanidipine on cholesterol esterification in macrophages loaded with cholesterol ester before the addition of the compound, this condition being the same as in foam cells. Cells are loaded with cholesteryl esters by exposure for 24 hours to a medium containing 50 µg acetyl LDL."}, "[3]": {"test_system": "LDL", "test": "Cu++-mediated LDL oxidation, conjugated diene formation at 234 nm", "format": "physicochemical, human", "design": "Lag time: unit: min", "conditions": "for Lag time: 20 µM CuSO4, 25°C", "description": "Lercanidipine antioxidant capacity was evaluated by incubating LDL With 20 µM Cu^++ in the presence or absence of different concentrations of the tested compound (0.01 µM - 50 µM). LDL oxidation Was followed by monitoring conjugated diene formation at 234 nm. The experimental conditions were as follows. LDL (d = 1.019-1.063) were isolated from human pooled plasma by sequential ultracentrifugation at 4°C and 40,000 rpm in a 50Ti rotor, using a L5-50 ultracentrifuge (Beckman, Palo Alto, CA). LDL were then dialyzed against 0.15 M NaCl containing 0.01% ethylenediaminetetraacetic acid pH 7.4, sterilized by filtration through a […] millipore filter and kept at 4°C under nitrogen in the dark until use (up to 3 weeks). Before use LDL were dialysed against ethylenediaminetetraacetic acid free phosphate buffered saline pH 7.4 on Sephadex G-25 columns (PD-10, Pharmacia Fine Chemicals, Uppsala, Sweden) and then LDL were filtered through a sterile 0.22 µM filter. LDL in phosphate buffered saline (50 µg lipoprotein protein/ml) were oxidized by incubation at 25°C with 20 µM CuSO4 for 3 hours. The lercanidipine solution was prepared as a 10^-2 M stock solution in methanol and added as ethanol solution (maximum 1% v/v) prior to addition of copper. The effect of lercanidipine on the oxidation of LDL was determined by continuous monitoring the conjugated diene formation by recording the increase in the absorbance at 234 nm at 5 min intervals during a three hours period, against a phosphate buffered saline blank, using a UV spectrophotometer (Beckman DU 640) with continuous reading with a automatic 6-cell changer. The lag time of the onset of oxidation was calculated as the intercept between the line of the maximum slope of the propagation phase and the baseline where absorbance was that at time 0."}, "[4]": {"test_system": "cell-mediated oxidation of LDL", "test": "Time course of cell-mediated LDL oxidation", "format": "cell-based", "conditions": "30 µM, after 10 hours incubation; Figure 7", "description": "The antioxidant capacity of lercanidipine and its enantiomers was investigated also on cell-mediated oxidation. This was evaluated by incubating ethylenediaminetetraacetic acid free LDL under sterile conditions With 5 µM Cu^++ (100 µg Apo B/ml) in the presence of J774 cells or alternatively with EAhy-926 cells. Oxidation was blocked after 22 hours incubation by adding butylated hydroxytoluene to the medium (final concentration 40 µM) dissolved in ethanol. The extent of lipid peroxidation was measured by determining the percentage inhibition of aldehydic breakdown products using the thiobarbituric acid assay [A.N. Hanna et al., Biochem. Pharmacol. 45, 753 (1993)]. Briefly, to 0.250 ml of the incubated samples, 0.750 ml of trichloroacetic acid ([…]) was added followed by 0.750 ml of thiobarbituric acid (0.67% w/v). The samples were heated at 100°C for 20 min, followed by cooling and centrifugation. Malondialdehyde equivalents were calculated using 1,1,3,3-tetramethoxy-propane as standard.\nIn the above experiments of cell-mediated oxidation the effects of lercanidipine were investigated after 22 hours incubation. […]"}, "[5]": {"test_system": "renal hypertensive dogs", "test": "Blood pressure in renal hypertensive dogs, oral administration", "format": "in vivo, beagle dogs", "conditions": "for ED25 (dose inducing 25% decrease in DBP at peak effect), 95% C.L.: renal hypertensive dogs, linear regression analysis", "description": "The antihypertensive effects of oral assumption of lercanidipine and its enantiomers were tested in renal hypertensive dogs.\nMale beagle dogs weighing 12-13 kg, aged 1-3 years (Nossan Allevamenti, Italy) were used. Chronic sustained hypertension was induced by bilateral renal artery constriction, according to the Goldblatt method \"two-kidney, two clip hypertension\". Under barbiturate anaesthesia (35 mg/kg iv.) during two different surgical interventions one month apart from each other, both renal arteries were clipped with original renal silver clips and narrowed by about 60-70 %. After two months from the last intervention, an experimental renal hypertension was produced and the animals were suitable for the implantation of a catheter. Under sodium pentobarbital anaesthesia (35 mg/kg iv.), in sterile conditions, the dogs were catheterized by inserting an indwelling cannula (PE 200 Clay Adams) into the ascending aorta through the right common carotid artery. The catheter was subcutaneously exteriorized at the back of the neck, filled with heparinized saline solution and daily flushed to prevent clotting. After a week to recover from surgery, the animals were connected to a HP 1290A pressure transducer connected to an HP 8805B carrier amplifier of a Hewlett Packard HP 7700 multichannel polygraph, in order to monitor the arterial blood pressure. Heart rate was manually computed from the pressure trace.\nAll animals were alternatively treated with placebo, lercanidipine and its (R)- and (S)-enantiomers. The drugs were administered by the oral route with a straight round aseptic tip catheter (Pores Serlat - France). The drugs were suspended in aqueous 0.5% Methocel A4C plus Antifoam M10 (10%). The administered volume was 1 ml/kg. The suspending medicine was used as placebo. During experimental performance, the arterial blood pressure was continuously recorded 30 minutes before (Basal Values) and up to 8 hours after drug administration.\nThe ED25 values (dose inducing 25% decrease in DBP at peak effect) were evaluated by linear regression analysis and are summarized in Table 4."}, "[6]": {"test_system": "rat aortic smooth muscle cells (myocytes)", "test": "Myocytes growth inhibition measured by cell count (rat)", "format": "cell-based", "conditions": "72 h, cell count after 72 hours with 10% fetal calf serum, read-out: IC50 (concentration required to inhibit cell growth by 50%)"}, "[7]": {"test_system": "mouse peritoneal macrophages", "test": "Cholesterol esterification induced by AcLDL in macrophages", "format": "cell-based", "conditions": "comparison of lercanidipine and enantiomers; Figure 3", "description": "Cholesterol esterification induced by AcLDL in mouse peritoneal macrophages was investigated as follows. Mouse peritoneal macrophages were obtained by peritoneal lavage from mice (Balb/c Charles River, Calco, Italy) three days after intraperitoneal injection of thioglycolate. Cells (2-3x10^6) were plated in 35 mm wells with Dulbecco's minimum essential medium containing 10% fetal bovine serum. After 3 hours, the dishes were washed to eliminate unattached cells and maintained in Dulbecco's minimum essential medium plus 10% fetal bovine serum for 24 hours before use. After cell plating, experiments were performed at 37°C in serum free Dulbecco's minimum essential medium containing 0.2% essentially fatty acid-free bovine serum albumin plus the indicated additions. Human LDL (d=1.019-1.063 g/ml) were isolated from plasma of healthy volunteers by sequential ultracentrifugation (Beckman L5-50, Palo Alto, CA). […] Trichloroacetic acid non precipitable radioactivity was below 2% of total. […] Cholesterol esterification was measured after addition of [1-^14C] oleic acid ([…] sample) complexed with bovine serum albumin during the last 1 or 2 hours of incubation and subsequent determination of radioactivity associated with cellular cholesteryl esters. […]"}}, "note": "Read-outs that look alike come from different tables or passages of the source.", "data": [{"smiles": "COC(=O)C1=C(C)NC(C)=C(C(=O)OC(C)(C)CN(C)CCC(c2ccccc2)c2ccccc2)C1c1cccc([N+](=O)[O-])c1", "note": "(racemic) [Lercanidipine, methyl 1,1,N-trimethyl-N-(3,3-diphenylpropyl)-2-aminoethyl 1,4-dihydro-2,6-dimethyl--4-(3-nitrophenyl)-pyridine-3,5-dicarboxylate]", "values": [{"measurement": "IC50", "setting": "[1]", "result": 25.3, "unit": "µM"}, {"measurement": "IC50", "setting": "[2]; Mus musculus, Macrophage, cells loaded 24 hours with 50 µg acetyl LDL", "result": "~7", "unit": "µM"}, {"measurement": "inhibition of cholesterol esterification", "setting": "[2]; maximum, cells loaded 24 hours with 50 µg acetyl LDL", "result": "up to 70%"}, {"measurement": "effect on the lag-phase of LDL oxidation", "setting": "[3]; 10 µM", "result": "doubled the lag-phase of LDL oxidation"}, {"measurement": "potency on LDL oxidation compared with lacidipine", "setting": "[3]; \"in these assays\" (LDL oxidation)", "result": "one order of magnitude higher than that of lacidipine"}, {"measurement": "Lag time", "setting": "[3]; Lercanidipine 0.5 µM", "result": "45.1 ± 3.7"}, {"measurement": "Lag time", "setting": "[3]; Lercanidipine 1.0 µM", "result": "49.8 ± 4.7"}, {"measurement": "Lag time", "setting": "[3]; Lercanidipine 2.5 µM, P < 0.05", "result": "53.6 ± 3.3"}, {"measurement": "Lag time", "setting": "[3]; Lercanidipine 5.0 µM, P < 0.01", "result": "73.2 ± 4.8"}, {"measurement": "Lag time", "setting": "[3]; Lercanidipine 10.0 µM, P < 0.01", "result": "112.7 ± 5.2"}, {"measurement": "inhibition of lipid oxidation", "setting": "[4]", "result": "very high inhibition of lipid oxidation"}, {"measurement": "effect on arterial blood pressure", "setting": "[5]", "result": "dose-related decrease in arterial blood pressure"}, {"measurement": "IC50", "setting": "[6]; Myocytes from SD Rat", "result": 31.2, "unit": "µM"}, {"measurement": "IC50", "setting": "[6]; Myocytes from SHR Rat", "result": 14.1, "unit": "µM"}, {"measurement": "IC50", "setting": "[6]; Myocytes from WK Rat", "result": 16.4, "unit": "µM"}]}, {"smiles": "COC(=O)C1=C(C)NC(C)=C(C(=O)OC(C)(C)CN(C)CCC(c2ccccc2)c2ccccc2)[C@@H]1c1cccc([N+](=O)[O-])c1", "note": "[(R)-Lercanidipine, (R)-(-)-methyl 1,1-N-triethyl-N-(3,3-diphenylpropyl)-2-aminoethyl 1,4-dihydro--2,6-dimethyl-4-(3-nitrophenyl)-pyridine-3,5-dicarboxylate]", "values": [{"measurement": "relative potency on cholesterol esterification", "setting": "[2]", "result": "slightly more potent than the racemate"}, {"measurement": "ED25 (dose inducing 25% decrease in DBP at peak effect), 95% C.L.", "setting": "[5]", "result": "> > 30 mg/kg"}, {"measurement": "relative activity on cholesterol esterification induced by AcLDL", "setting": "[7]", "result": "most active compound"}]}, {"smiles": "COC(=O)C1=C(C)NC(C)=C(C(=O)OC(C)(C)CN(C)CCC(c2ccccc2)c2ccccc2)[C@H]1c1cccc([N+](=O)[O-])c1", "note": "[(S)-Lercanidipine, (S)-(+)-methyl 1,1-N-trimethyl-N-(3,3-diphenylpropyl)-2-aminoethyl 1,4-dihydro--2,6-dimethyl-4-(3-nitrophenyl)-pyridine-3,5-dicarboxylate]", "values": [{"measurement": "relative potency on cholesterol esterification", "setting": "[2]", "result": "least potent among the compounds tested"}, {"measurement": "antihypertensive efficacy compared with the racemate", "setting": "[5]", "result": "two fold more efficacious than the racemate"}, {"measurement": "effect on arterial blood pressure", "setting": "[5]", "result": "dose-related decrease in arterial blood pressure"}, {"measurement": "ED25 (dose inducing 25% decrease in DBP at peak effect), 95% C.L.", "setting": "[5]", "result": "0.4 (0.3 ö 0.7) mg/kg"}]}, {"smiles": "CCOC(=O)C1=C(C)NC(C)=C(C(=O)OCC)C1c1ccccc1/C=C/C(=O)OC(C)(C)C", "note": "[LA, Lacidipine, reference compound]", "values": [{"measurement": "IC50", "setting": "[6]; Myocytes from SD Rat", "result": 23.6, "unit": "µM"}]}, {"smiles": "COC(=O)C1=C(C)NC(C)=C(C(=O)OCCN(C)Cc2ccccc2)C1c1cccc([N+](=O)[O-])c1", "note": "(stereo not drawn) [NI, Nicardipine, reference compound]", "values": [{"measurement": "IC50", "setting": "[6]; Myocytes from SD Rat", "result": 38.8, "unit": "µM"}]}]}
